28 substances from patent publication US20150218534A1, “MODIFIED DNA POLYMERASE” (TOYOBO CO., LTD., priority 2012, published 2015) can be followed below.

The subject of experiment [1] is human genomic DNA (about 1.3 kb) with dUTP added. Nature of the experiment: Evaluation of uracil (dUTP) sensitivity by PCR with dUTP added to the reaction. It is filed as biochemical. Conditions: for Evaluation of dUTP resisitance on a 11-point scale: closer to 0 = stronger sensitivity to dUTP, closer to 10 = lower sensitivity, summary of Examples 1 to 3; for dUTP resistance: dUTP added to 0.5, 5, 50, 100, 200 μM, about 1.3 kb, 30 cycles, 1 U enzyme. The essentials:
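Uracil sensitivity is judged by whether a roughly 1.3 kb band still appears on ethidium bromide-stained agarose gel. Tolerated dUTP was tested at final 0.5 to 200 μM (0.5, 5, 50, 100, 200 μM), using 10 ng human genomic DNA, 1 U enzyme, 0.2 mM dNTPs and 1.5 mM MgSO4 in KOD-Plus-Ver. 2 buffer. Cycling: 94° C for 30 s, then 30 cycles of 98° C/65° C/68° C.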

Another experiment relates to 482 bp of human β-globin. Nature of the experiment: PCR amplification of 482 bp of human β-globin with dUTP in place of dTTP. The class given is biochemical. Also noted: key to Results of PCR in the presence of dUTP 481 bp: A: Amplified; B: Amplified (faint band); C: Not amplified. The settings on record: for Results of PCR in the presence of dUTP 481 bp: dTTP replaced by dUTP, 35 cycles; for PCR amplification of 482 bp with dUTP: 100% dUTP instead of dTTP (FIGS. 5 to 8). The method, then:
482 bp of human β-globin was amplified to compare the amplification difference between the case of using dTTP and the case of using dUTP in PCR, and the sensitivity to dUTP was examined. For amplification, each enzyme was used after being mixed with 1 μg of a KOD antibody per U of the enzyme. For PCR, components included in KOD-Plus-Ver. 2 (produced by Toyobo Co. Ltd.) were used. General dNTPs (dATP, dTTP, dCTP, dGTP) in an amount of 0.2 mM were added to 50 μl of individual reaction solutions, and dNTPs (dATP, dUTP, dCTP, dGTP) in an amount of 0.2 mM in which dTTP was replaced by dUTP were added to 50 μl of individual reaction solutions. The reaction solutions contained 1× PCR buffer, 1.5 mM MgSO4, primers represented by SEQ ID NOs: 27 and 28 in an amount of 15 pmol for amplifying […], 10 ng of human genomic DNA (produced by Roche), and 1 U of each respective enzyme mixed with the antibody. PCR was performed using a GeneAmp PCR system 9700 (produced by Applied Biosystems) on the following schedule: preliminary reaction at 94° C. for 2 minutes, followed by 35 cycles, each cycle consisting of 98° C. for 10 seconds and 68° C. for 1 minute. After the completion of each individual reaction, each of the resulting reaction solutions was analyzed using to a DNA-1000 kit for MultiNA (produced by Shimadzu Corporation) to confirm amplified DNA fragments. FIGS. 5 and 6 show the results.

“KOD H147E/P36H/V93K: KOD H147E (exo(+)) mutant with P36H and V93K”: in experiment [1], the “Evaluation of dUTP resisitance on a 11-point scale” value (from here on “Evaluation of dUTP resisitance”) turned out to be 8 and the “dUTP resistance” value was over 200 µM. Further, the “Results of PCR in the presence of dUTP 481 bp” value (from here on “Results of PCR”) in the experiment on 482 bp of human β-globin is “A”.

For the substance “KOD I142R/Y7A: KOD I142R (exo(−)) mutant with Y7A”, in experiment [1], the “Evaluation of dUTP resisitance” value is on record as 2 and the “dUTP resistance” value was 5 µM. In addition, in the experiment with 482 bp of human β-globin, the “Results of PCR” value is “C”.

With “KOD H147E/V93R: KOD H147E (exo(+)) mutant with V93R”, in experiment [1], the “Evaluation of dUTP resisitance” value came out at 6 and the “dUTP resistance” value was over 200 µM. Besides, the “Results of PCR” value in the experiment on 482 bp of human β-globin is reported as “A”.

In the case of “KOD N210D/Y7A/P36R: KOD N210D (exo(−)) mutant with Y7A and P36R”, in experiment [1], the “Evaluation of dUTP resisitance” value stood at 10 and the “dUTP resistance” value is over 200 µM. The “Results of PCR” value in the experiment on 482 bp of human β-globin is “A”.

With “KOD H147E/V93K: KOD H147E (exo(+)) mutant with V93K”, in experiment [1], the “Evaluation of dUTP resisitance” value came out at 6 and the “dUTP resistance” value is over 200 µM. The “Results of PCR” value in the experiment with 482 bp of human β-globin is recorded as “A”.

Turning to “KOD P36R/V93K: modified KOD DNA polymerase with P36R and V93K”, in experiment [1], the “Evaluation of dUTP resisitance” value was 0 and the “dUTP resistance” value amounted to 0 µM. The “Results of PCR” value in the experiment with 482 bp of human β-globin is listed as “C”.

“KOD D141A/E143A/Y7A: KOD D141A/E143A (exo(−)) mutant with Y7A”: in experiment [1], the “Evaluation of dUTP resisitance” value stood at 2 and the “dUTP resistance” value turned out to be 5 µM. The “Results of PCR” value in the experiment on 482 bp of human β-globin is “C”.

For “KOD H147E/P36R: KOD H147E (exo(+)) mutant with P36R”, in experiment [1], the “Evaluation of dUTP resisitance” value stood at 6 and the “dUTP resistance” value was over 200 µM. In addition, the “Results of PCR” value in the experiment on 482 bp of human β-globin was “A”.

“KOD D141A/E143A/P36R: KOD D141A/E143A (exo(−)) mutant with P36R”: in experiment [1], the “Evaluation of dUTP resisitance” value was 8 and the “dUTP resistance” value was over 200 µM. Besides, the “Results of PCR” value in the experiment with 482 bp of human β-globin is on record as “A”.

For the substance “KOD H147E/Y7A: KOD H147E (exo(+)) mutant with Y7A”, in experiment [1], the “Evaluation of dUTP resisitance” value is 2 and the “dUTP resistance” value stood at 0.5 µM. Besides, the “Results of PCR” value in the experiment on 482 bp of human β-globin is given as “C”.

For the substance “KOD D141A/E143A/Y7A/V93K: KOD D141A/E143A (exo(−)) mutant with Y7A and V93K”, in experiment [1], the “Evaluation of dUTP resisitance” value was 10 and the “dUTP resistance” value is over 200 µM. For the same substance, in the experiment on 482 bp of human β-globin, the “Results of PCR” value is listed as “A”.

As for “KOD N210D/P36H: KOD N210D (exo(−)) mutant with P36H”, in experiment [1], the “Evaluation of dUTP resisitance” value came out at 8 and the “dUTP resistance” value is over 200 µM. Moreover, the “Results of PCR” value in the experiment on 482 bp of human β-globin was “A”.

For the substance “KOD H147E/Y7A/P36H: KOD H147E (exo(+)) mutant with Y7A and P36H”, in experiment [1], the “Evaluation of dUTP resisitance” value amounted to 8 and the “dUTP resistance” value is over 200 µM. For the same substance, the “Results of PCR” value with 482 bp of human β-globin was “A”.

Take “KOD Y7A/P36H: modified KOD DNA polymerase with Y7A and P36H”: in experiment [1], the “Evaluation of dUTP resisitance” value came to 8 and the “dUTP resistance” value was over 200 µM. Also, in the experiment with 482 bp of human β-globin, the “PCR amplification of 482 bp with dUTP” value is recorded as “allowed for PCR amplification” and the “Results of PCR” value is recorded as “A”.

Regarding “KOD N210D/V93Q: KOD N210D (exo(−)) mutant with V93Q”, in experiment [1], the “Evaluation of dUTP resisitance” value was 6 and the “dUTP resistance” value is over 200 µM. In addition, the “Results of PCR” value in the experiment on 482 bp of human β-globin is recorded as “A”.

Take “KOD D141A/E143A/P36H: KOD D141A/E143A (exo(−)) mutant with P36H”: in experiment [1], the “Evaluation of dUTP resisitance” value worked out at 8 and the “dUTP resistance” value was over 200 µM. Further, the “Results of PCR” value in the experiment on 482 bp of human β-globin was “A”.

As for “KOD H147E/P36H: KOD H147E (exo(+)) mutant with P36H”, in experiment [1], the “Evaluation of dUTP resisitance” value came to 6 and the “dUTP resistance” value was over 200 µM. The “Results of PCR” value in the experiment on 482 bp of human β-globin is “A”.

As to “KOD H147E/Y7A/P115Δ: KOD H147E (exo(+)) mutant with Y7A and lacking P115”, in experiment [1], the “Evaluation of dUTP resisitance” value is 0 and the “dUTP resistance” value was found to be 0 µM. Moreover, in the experiment with 482 bp of human β-globin, the “Results of PCR” value is “C”.

Turning to “KOD Y7A/V93K: modified KOD DNA polymerase with Y7A and V93K”, in experiment [1], the “Evaluation of dUTP resisitance” value is on record as 8 and the “dUTP resistance” value was over 200 µM. Besides, in the experiment with 482 bp of human β-globin, the “PCR amplification of 482 bp with dUTP” value is “allowed for PCR amplification” and the “Results of PCR” value was “A”. Besides, the “PCR amplification of 482 bp with dUTP” value in the experiment on 482 bp of human β-globin (listed as V93K/Y7A) is on record as “greatly improve the amplification amount, compared to V93K”.

In the case of “KOD H147E/Y7A/V93K: KOD H147E (exo(+)) mutant with Y7A and V93K”, in experiment [1], the “Evaluation of dUTP resisitance” value is given as 8 and the “dUTP resistance” value is over 200 µM. Further, in the experiment with 482 bp of human β-globin, the “Results of PCR” value is “A”.

As to “KOD N210D/Y7A: KOD N210D (exo(−)) mutant with Y7A”, in experiment [1], the “Evaluation of dUTP resisitance” value is 2 and the “dUTP resistance” value is 5 µM. Moreover, in the experiment with 482 bp of human β-globin, the “Results of PCR” value is recorded as “C”.

On to “KOD Y7A/P115Δ: modified KOD DNA polymerase with Y7A and lacking P115”, for which, in experiment [1], the “Evaluation of dUTP resisitance” value came to 0 and the “dUTP resistance” value turned out to be 0 µM. In addition, the “Results of PCR” value in the experiment with 482 bp of human β-globin is on record as “C”.

With “KOD D141A/E143A/Y7A/P36H: KOD D141A/E143A (exo(−)) mutant with Y7A and P36H”, in experiment [1], the “Evaluation of dUTP resisitance” value is given as 10 and the “dUTP resistance” value was over 200 µM. In the experiment with 482 bp of human β-globin, the “Results of PCR” value is given as “A”.

As for “KOD H147E/V93Q: KOD H147E (exo(+)) mutant with V93Q”, in experiment [1], the “Evaluation of dUTP resisitance” value turned out to be 4 and the “dUTP resistance” value amounted to 100 µM. Further, the “Results of PCR” value with 482 bp of human β-globin is “A”.

For “KOD N210D/P36R: KOD N210D (exo(−)) mutant with P36R”, in experiment [1], the “Evaluation of dUTP resisitance” value was found to be 8 and the “dUTP resistance” value is over 200 µM. Further, in the experiment with 482 bp of human β-globin, the “Results of PCR” value is on record as “A”.

As for “KOD N210D/Y7A/P115Δ: KOD N210D (exo(−)) mutant with Y7A and lacking P115”, in experiment [1], the “Evaluation of dUTP resisitance” value is given as 0 and the “dUTP resistance” value is 0 µM. For the same substance, in the experiment on 482 bp of human β-globin, the “Results of PCR” value is “C”.

As to “KOD N210D/Y7A/V93K: KOD N210D (exo(−)) mutant with Y7A and V93K”, in experiment [1], the “Evaluation of dUTP resisitance” value was found to be 10 and the “dUTP resistance” value is over 200 µM. Further, the “Results of PCR” value with 482 bp of human β-globin is given as “A”.

As to “KOD N210D/V93K: KOD N210D (exo(−)) mutant with V93K”, in experiment [1], the “Evaluation of dUTP resisitance” value is 8 and the “dUTP resistance” value is over 200 µM. The “Results of PCR” value in the experiment with 482 bp of human β-globin is listed as “A”.
